Test results reported in PMC7931429 (ACS Omega, 2021).

Assays:
CHIKV nsP2 = target: T1, CHIKV nsP2 (Chikungunya virus, UniProt Q8JUX6); assay: Cell-free protease inhibition assay with recombinant CHIKV nsP2; type: biochemical; details: inhibitor 1 mM, nsP2 1.4 μM, substrate 6 μM, 30 °C, 1.5 h
T1 sequence (Q8JUX6 536-1333 limits assumed): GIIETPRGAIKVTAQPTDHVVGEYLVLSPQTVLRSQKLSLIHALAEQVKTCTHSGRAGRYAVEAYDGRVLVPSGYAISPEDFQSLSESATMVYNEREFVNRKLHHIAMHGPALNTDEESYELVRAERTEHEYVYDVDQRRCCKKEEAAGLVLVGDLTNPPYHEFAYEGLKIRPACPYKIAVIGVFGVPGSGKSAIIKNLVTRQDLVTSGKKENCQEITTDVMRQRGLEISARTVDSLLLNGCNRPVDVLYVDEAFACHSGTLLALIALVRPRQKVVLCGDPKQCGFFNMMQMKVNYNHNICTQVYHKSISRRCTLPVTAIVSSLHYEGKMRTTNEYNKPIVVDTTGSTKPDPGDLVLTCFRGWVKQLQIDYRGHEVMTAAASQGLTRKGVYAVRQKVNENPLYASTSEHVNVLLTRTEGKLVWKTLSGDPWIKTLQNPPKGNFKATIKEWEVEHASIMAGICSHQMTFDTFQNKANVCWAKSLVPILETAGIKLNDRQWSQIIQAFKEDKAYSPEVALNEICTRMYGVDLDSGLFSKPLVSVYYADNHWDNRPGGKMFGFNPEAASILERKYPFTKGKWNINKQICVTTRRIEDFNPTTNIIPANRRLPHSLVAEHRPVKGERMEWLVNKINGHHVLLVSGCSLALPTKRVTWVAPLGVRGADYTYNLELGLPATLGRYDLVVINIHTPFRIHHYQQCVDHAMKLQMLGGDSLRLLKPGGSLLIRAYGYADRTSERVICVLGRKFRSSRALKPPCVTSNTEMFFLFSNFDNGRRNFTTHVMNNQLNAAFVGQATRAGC

CHIKV-NanoLuc [1] = type: cell-based, Chikungunya virus; details: BHK-21 cells, MOI 10, 6 h post infection, concentration 10 times higher than IC50
CHIKV-NanoLuc [2] = assay: Antiviral activity against CHIKV-NanoLuc in RPE cells; type: cell-based; details: Chikungunya virus, 48 h, read-out: IC50 in RPE cells

Molecule	Effect on protease activity of nsP2 (amount of cleavage product) (CHIKV nsP2)	Virus replication (ns-protein and capsid protein expression) by western blot (CHIKV-NanoLuc [1])	IC50 (CHIKV-NanoLuc [2]) [µM]
O=C(Nc1ncc([N+](=O)[O-])s1)c1ccccc1O [Compound 10, 2-hydroxy-N-(5-nitro-1,3-thiazol-2-yl)benzamide]	strongest inhibitory effect	completely inhibited	7.3
O=C(Nc1ncc([N+](=O)[O-])s1)c1cccc(Cl)c1 [Compound 10b, 3-chloro-N-(5-nitro-1,3-thiazol-2-yl)benzamide]	smaller inhibitory effect than compound 10		
O=C(Nc1ncc([N+](=O)[O-])s1)c1cc(Cl)ccc1Cl [Compound 10c, 2,5-dichloro-N-(5-nitro-1,3-thiazol-2-yl)benzamide]	smaller inhibitory effect than compound 10		
(5Z)-3-ethyl-5-(naphthalen-1-ylmethylidene)-2-sulfanylidene-1,3-oxazolidin-4-one [Compound 1]	no effect		
